Measurements as given in PubChem BioAssay AID2060496 (Molecular Pharmacology Branch, DTP, NCI, 2025).
Values joined by “and” are separate entries in the source; they are usually repeats but may differ in a detail not shown here. Equal entries are not always repeated.

System: 276233-004-R-J1-PDC complex spheroid viability
Assay: Anticancer human tumor 276233-004-R-J1-PDC patient-derived colon adenocarcinoma cell line growth inhibition [GQUAD]
Details: for viability, T/C: stronger effect = lower value
Text: DNA G-quadruplex Stabilizer Agents in Combinations in Complex Spheroids
A high-throughput screen of multi-cell type tumor spheroids was designed to identify active combinations of DNA G-quadruplex stabilizer agents and targeted small molecules. Complex spheroids include a stromal component modeled by human endothelial cells (HUVEC) and fibroblasts modeled by human mesenchymal stem cells (MSCs). The concentration ranges selected for each drug and investigational agent were based upon clinically achievable concentrations if the clinical Cmax of the agent was known.
Compounds. The drugs and investigational agents: pidnarulex (CX-5461; NSC782164), APTO-253 (NSC789042), BRACO-19 (NSC847499), peposertib (NSC802822), ceralasertib (NSC780249), elimusertib (NSC800525), camonsertib (NSC841442), AZD-1390 (NSC803789), olaparib (NSC753686), talazoparib (NSC767125), ART-558 (NSC835418), sotorasib (NSC818433), MRTX-1133 (NSC836407), SN-38 (NSC673596), topotecan (NSC609699), etoposide (NSC141540), doxorubicin (NSC123127), gemcitabine (NSC613327), 5-fluorouracil (NSC19893), paclitaxel (NSC125973), vemurafenib (NSC761431), panobinostat (NSC761190), R-306465 (JNJ-16241199; NSC773264), adavosertib (NSC754352), TP-3654 (NSC805149), carboplatin (NSC241240), KSQ-4279 (NSC840948), and staurosporine (NSC755774) were obtained from the National Cancer Institute (NCI) Developmental Therapeutics Program Chemical Repository (34). The FDA-approved anticancer drug set is available from the NCI Developmental Therapeutics Program. […] The stock solutions were prepared in dimethyl sulfoxide (DMSO, Sigma-Aldrich, St. Louis, MO, cat. D2650) at 800-fold the tested concentration and stored at -70 degrees C prior to their use. All drugs and investigational agents were tested over a range starting from a high concentration at or near the clinical Cmax and decreasing in half-log increments. If the clinical Cmax for an agent had not been determined, the highest concentration tested was 10 microM.
2.3 Cell Culture. All cells were maintained in an incubator at 37 degrees C and 5% CO2 with 95% humidity. The PDC lines were cultured according to standard operating procedures established by the NCI PDMR. All PDCs were thawed and cultured in Matrigel-coated flasks prepared with a working solution of 1X Ham's F-12 nutrient mix, without supplementation (Invitrogen, cat. 11765054), 100 U/mL penicillin-streptomycin (Invitrogen, cat. 15140122), and 2.5% Matrigel (Corning Inc., cat. 354248) for the first three passages. The 857933-349-R-J2-PDC line was cultured in 6C/Colon 1B media, which includes advanced DMEM/F-12 (Thermo Fisher Scientific, cat. 12634028), 10 mM HEPES (Thermo Fisher Scientific, cat. 15630080), 1X GlutaMAX supplement (Thermo Fisher Scientific, cat. 35050061), 0.1 mg/mL primocin (InvivoGen, cat. ant-pm-2), 10% defined fetal bovine serum, heat inactivated (HyClone Laboratories Inc., cat. SH30070.03HI), 50% L-WRN conditioned media (ATCC, cat. CRL-3276), 1.25 mM N-Acetyl-L-cysteine (Sigma-Aldrich, cat. A9165), 10 mM nicotinamide (Sigma-Aldrich, cat. N0636), 1X B-27 supplement (Thermo Fisher Scientific, cat. 17504044), 1X N-2 supplement (Thermo Fisher Scientific, cat. 17502048), 10 microM Y-27632 dihydrochloride (Tocris Bioscience, cat. 1254), and 50 ng/mL human EGF recombinant protein (Thermo Fisher Scientific, cat. PHG0311). The 485176-168-R4-J1-PDC line was cultured in Panc media, which includes all 6C/Colon 1B media components plus 100 ng/mL human FGF-10 (Thermo Fisher Scientific, cat. 100-26), 500 nM SB-431542 (Selleckchem, cat. S1067), and gastrin (Tocris, cat. 3006).
[…]

[1] = curve of first compound, second compound 0.0316 µM
[2] = curve of first compound, second compound 0.1 µM
[3] = curve of first compound, second compound 0.316 µM
[4] = curve of first compound, second compound 1 µM
[5] = curve of first compound, second compound 3.16 µM
[6] = curve of first compound, second compound 10 µM
[7] = second compound 0.0316 µM, first compound 0.0316 µM
[8] = second compound 0.0316 µM, first compound 0.316 µM
[9] = second compound 0.1 µM, first compound 0.0316 µM
[10] = second compound 0.1 µM, first compound 0.316 µM
[11] = second compound 0.316 µM, first compound 0.0316 µM
[12] = second compound 0.316 µM, first compound 0.316 µM
[13] = second compound 1 µM, first compound 0.0316 µM
[14] = second compound 1 µM, first compound 0.316 µM
[15] = second compound 3.16 µM, first compound 0.0316 µM
[16] = second compound 3.16 µM, first compound 0.316 µM
[17] = second compound 10 µM, first compound 0.0316 µM
[18] = second compound 10 µM, first compound 0.316 µM
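Note: spheroids exposed to drugs for seven days.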
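Throughout, for viability, T/C: 100% = DMSO vehicle control viability.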

With `CCCS(=O)(=O)Nc1ccc(F)c(C(=O)c2c[nH]c3ncc(-c4ccc(Cl)cc4)cc23)c1F` + CN(C)c1ccc(Nc2c3ccc(NC(=O)CCN4CCCC4)cc3nc3cc(NC(=O)CCN4CCCC4)ccc23)cc1 the IC50 [1] was > 10000 nM, the IC50 [2] was > 10000 nM and the IC50 [3] was > 10000 nM. The IC50 [4] was > 10000 nM, the IC50 [5] was > 10000 nM and the IC50 [6] was < 31.6 nM. For the same molecule, the viability, T/C [7] was 81.6%, the viability, T/C (second compound 0.0316 µM, first compound 0.1 µM) was 83.2% and the viability, T/C [8] was 78%. For the same molecule, the viability, T/C (second compound 0.0316 µM, first compound 1 µM) was 102%, the viability, T/C (second compound 0.0316 µM, first compound 3.16 µM) was 91% and the viability, T/C (second compound 0.0316 µM, first compound 10 µM) was 65.2%. It also gave a viability, T/C [9] of 76.4%, a viability, T/C (second compound 0.1 µM, first compound 0.1 µM) of 80% and a viability, T/C [10] of 78.2%. It also gave a viability, T/C (second compound 0.1 µM, first compound 1 µM) of 77.1%, a viability, T/C (second compound 0.1 µM, first compound 3.16 µM) of 71% and a viability, T/C (second compound 0.1 µM, first compound 10 µM) of 70.8%. It also gave a viability, T/C [11] of 72.9%, a viability, T/C (second compound 0.316 µM, first compound 0.1 µM) of 64.3% and a viability, T/C [12] of 68.8%. The viability, T/C (second compound 0.316 µM, first compound 1 µM) was 63%, the viability, T/C (second compound 0.316 µM, first compound 3.16 µM) was 65.3% and the viability, T/C (second compound 0.316 µM, first compound 10 µM) was 55.1%. For the same molecule, the viability, T/C [13] was 60.2%, the viability, T/C (second compound 1 µM, first compound 0.1 µM) was 58.2% and the viability, T/C [14] was 56.8%. For the same molecule, the viability, T/C (second compound 1 µM, first compound 1 µM) was 65.2%, the viability, T/C (second compound 1 µM, first compound 3.16 µM) was 53.3% and the viability, T/C (second compound 1 µM, first compound 10 µM) was 63.4%. For the same molecule, the viability, T/C [15] was 62.1%, the viability, T/C (second compound 3.16 µM, first compound 0.1 µM) was 56.6% and the viability, T/C [16] was 50.8%. The viability, T/C (second compound 3.16 µM, first compound 1 µM) was 46.1%, the viability, T/C (second compound 3.16 µM, first compound 3.16 µM) was 59.1% and the viability, T/C (second compound 3.16 µM, first compound 10 µM) was 55.6%. It also gave a viability, T/C [17] of 33.9%, a viability, T/C (second compound 10 µM, first compound 0.1 µM) of 45.9% and a viability, T/C [18] of 40.4%. For the same molecule, the viability, T/C (second compound 10 µM, first compound 1 µM) was 38.2%, the viability, T/C (second compound 10 µM, first compound 3.16 µM) was 39.3% and the viability, T/C (second compound 10 µM, first compound 10 µM) was 56.6%.

With `CC[C@@]1(O)C(=O)OCc2c1cc1n(c2=O)Cc2cc3c(CN(C)C)c(O)ccc3nc2-1` + Cc1cnc(CNC(=O)c2c(=O)c3ccc(N4CCCN(C)CC4)nc3n3c2sc2ccccc23)cn1 the IC50 [1] was > 316 nM, the IC50 [2] was > 316 nM and the IC50 [3] was > 316 nM. The IC50 [4] was > 316 nM, the IC50 [5] was > 316 nM and the IC50 [6] was > 316 nM. The viability, T/C (second compound 0.0316 µM, first compound 0.000999 µM) was 88.1%, the viability, T/C (second compound 0.0316 µM, first compound 0.00316 µM) was 94.5% and the viability, T/C (second compound 0.0316 µM, first compound 0.00999 µM) was 87.9%. The viability, T/C [7] was 80%, the viability, T/C (second compound 0.0316 µM, first compound 0.0999 µM) was 98.7% and the viability, T/C [8] was 82.5%. For the same molecule, the viability, T/C (second compound 0.1 µM, first compound 0.000999 µM) was 93.3%, the viability, T/C (second compound 0.1 µM, first compound 0.00316 µM) was 101% and the viability, T/C (second compound 0.1 µM, first compound 0.00999 µM) was 107%. The viability, T/C [9] was 83.7%, the viability, T/C (second compound 0.1 µM, first compound 0.0999 µM) was 87% and the viability, T/C [10] was 76%. The viability, T/C (second compound 0.316 µM, first compound 0.000999 µM) was 83.9%, the viability, T/C (second compound 0.316 µM, first compound 0.00316 µM) was 90.8% and the viability, T/C (second compound 0.316 µM, first compound 0.00999 µM) was 106%. The viability, T/C [11] was 84.4%, the viability, T/C (second compound 0.316 µM, first compound 0.0999 µM) was 87.7% and the viability, T/C [12] was 92.7%. It also gave a viability, T/C (second compound 1 µM, first compound 0.000999 µM) of 81%, a viability, T/C (second compound 1 µM, first compound 0.00316 µM) of 93.9% and a viability, T/C (second compound 1 µM, first compound 0.00999 µM) of 87.1%. The viability, T/C [13] was 80.5%, the viability, T/C (second compound 1 µM, first compound 0.0999 µM) was 88.2% and the viability, T/C [14] was 107%. It also gave a viability, T/C (second compound 3.16 µM, first compound 0.000999 µM) of 81.9%, a viability, T/C (second compound 3.16 µM, first compound 0.00316 µM) of 84% and a viability, T/C (second compound 3.16 µM, first compound 0.00999 µM) of 80.6%. For the same molecule, the viability, T/C [15] was 87.2%, the viability, T/C (second compound 3.16 µM, first compound 0.0999 µM) was 82.3% and the viability, T/C [16] was 80.8%. The viability, T/C (second compound 10 µM, first compound 0.000999 µM) was 73.2%, the viability, T/C (second compound 10 µM, first compound 0.00316 µM) was 67.9% and the viability, T/C (second compound 10 µM, first compound 0.00999 µM) was 70.2%. The viability, T/C [17] was 83.6%, the viability, T/C (second compound 10 µM, first compound 0.0999 µM) was 70% and the viability, T/C [18] was 89.6%.

With `CC(C)(O)C1CCC(Nc2ccc3ncc(-c4cccc(C(F)(F)F)c4)n3n2)CC1` (stereo unspecified) the viability, T/C (compound 0.0316 µM) was 82.3% and 80.4% and 95.8%, the viability, T/C (compound 0.1 µM) was 73.1% and 79.5% and 84.1% and the viability, T/C (compound 0.316 µM) was 72.7% and 86.8% and 87.8%. For the same molecule, the viability, T/C (compound 1 µM) was 62.9% and 60.6% and 73.3%, the viability, T/C (compound 3.16 µM) was 43.8% and 49.5% and 61% and the viability, T/C (compound 10 µM) was 45.6% and 63.7% and 54.7%. For the same molecule, the IC50 (curve of compound) was 2380 nM and > 10000 nM.
